Measurements published in patent US7192906B2, “Substituted pyrazole derivatives, production process thereof, and herbicide compositions containing the derivatives” (SDS Biotech K.K., priority 2001, dated 2007).

Tests used:
Type in all cases: in vivo
Rice (Oryza sativa) = experiment: Test Example 3 paddy field treatment, crop phytotoxicity; conditions: Table 6, paddy field treatment, transplanted rice, active ingredient 1 kg per hectare, 21st day after dropping, index 0-5
Method in brief: (§1)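 Scoring used a 0–5 scale of herbicidal effect or phytotoxicity, from <10% to ≥90%, taken 21 days after treatment. Treatment was 1 kg a.i./ha as diluted wettable powder dripped onto 4 cm-deep flooded pots sown with the weeds, 10 days after transplanting two-leaf Koshihikari rice.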

soybean (Glycine max) [1] = experiment: Test Example 2 upland soil treatment, crop phytotoxicity; conditions: Table 5, upland soil treatment, index 0-5
Method in brief: (§2)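 Pre-emergence soil treatment: seeds sown in upland soil in pots and covered with about 1 cm soil. Next day, a water-diluted wettable powder was sprayed evenly on the soil surface at 1 kg active ingredient per hectare. Weed control or crop injury was scored 0–5 (10% to ≥90% bands) 21 days later.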

[2] = test system: wheat (Triticum aestivum); experiment: as above; conditions: Table 5, upland soil treatment, index 0-5
Method in brief: as §2

Setaria viridis [3] = experiment: Test Example 2 upland soil treatment; conditions: Table 5, upland soil treatment, index 0-5
Method in brief: as §2

Stellaria media [4] = experiment: Test Example 2 upland soil treatment; conditions: Table 5, upland soil treatment, index 0-5
Method in brief: as §2

Chenopodium album [5] = experiment: Test Example 2 upland soil treatment; conditions: Table 5, upland soil treatment, index 0-5
Method in brief: as §2

Digitaria adscendens [6] = experiment: Test Example 2 upland soil treatment; conditions: Table 5, upland soil treatment, index 0-5
Method in brief: as §2

Setaria viridis [7] = experiment: Test Example 1 upland field foliage treatment; conditions: Table 4, upland field foliage treatment, index 0-5
Method in brief: (§3)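 Scored 0–5 (0: under 10%, 5: 90% or more effect or phytotoxicity) on day 21 after treatment; plants sown in upland soil received a leaf-surface spray 14 days post-sowing of diluted wettable powder delivering 1 kg active ingredient/ha.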

Stellaria media [8] = experiment: Test Example 1 upland field foliage treatment; conditions: Table 4, upland field foliage treatment, index 0-5
Method in brief: as §3

Chenopodium album [9] = experiment: Test Example 1 upland field foliage treatment; conditions: Table 4, upland field foliage treatment, index 0-5
Method in brief: as §3

Digitaria adscendens [10] = experiment: Test Example 1 upland field foliage treatment; conditions: Table 4, upland field foliage treatment, index 0-5
Method in brief: as §3

soybean (Glycine max) [11] = experiment: Test Example 1 upland field foliage treatment, crop phytotoxicity; conditions: Table 4, upland field foliage treatment, index 0-5
Method in brief: as §3

[12] = test system: wheat (Triticum aestivum); experiment: as above; conditions: Table 4, upland field foliage treatment, index 0-5
Method in brief: as §3

Monochoria vaginalis = experiment: Test Example 3 paddy field treatment; conditions: Table 6, paddy field treatment, active ingredient 1 kg per hectare, 21st day after dropping, index 0-5
Method in brief: as §1

Scirpus juncoides = experiment: Test Example 3 paddy field treatment; conditions: Table 6, paddy field treatment, active ingredient 1 kg per hectare, 21st day after dropping, index 0-5
Method in brief: as §1

Echinochloa crusgalli = experiment: Test Example 3 paddy field treatment; conditions: Table 6, paddy field treatment, active ingredient 1 kg per hectare, 21st day after dropping, index 0-5
Method in brief: as §1

Ammannia multiflora = experiment: Test Example 3 paddy field treatment; conditions: Table 6, paddy field treatment, active ingredient 1 kg per hectare, 21st day after dropping, index 0-5
Method in brief: as §1

Row | SMILES | Herbicidal activity (phytotoxicity) OS (Rice (Oryza sativa)) | Herbicidal activity (phytotoxicity) GM: Soybean (Glycine max) (soybean (Glycine max) [1]) | Herbicidal activity (phytotoxicity) TA: Wheat (Triticum aestivum) [2] | Herbicidal activity SV: Setaria viridis (Setaria viridis [3]) | Herbicidal activity SM: Stellaria media (Stellaria media [4]) | Herbicidal activity CA: Chenopodium album (Chenopodium album [5]) | Herbicidal activity DA: Digitaria adscendens (Digitaria adscendens [6]) | Herbicidal activity SV: Setaria viridis (Setaria viridis [7]) | Herbicidal activity SM: Stellaria media (Stellaria media [8]) | Herbicidal activity CA: Chenopodium album (Chenopodium album [9]) | Herbicidal activity DA: Digitaria adscendens (Digitaria adscendens [10]) | Herbicidal activity (phytotoxicity) GM: Soybean (Glycine max) (soybean (Glycine max) [11]) | Herbicidal activity (phytotoxicity) TA: Wheat (Triticum aestivum) [12] | Herbicidal activity MV (Monochoria vaginalis) | Herbicidal activity SJ (Scirpus juncoides) | Herbicidal activity EC (Echinochloa crusgalli) | Herbicidal activity AM (Ammannia multiflora)
1 | CNC(=O)C(Cn1cc(C)c(-c2cc(C(F)(F)F)ccc2F)n1)=NOC [Compound 86] | 0 (herbicidal effect of not less than 0% and less than 10%, or phytotoxicity of 0% or more and less than 10%) | 1 (herbicidal effect of not less than 10% and less than 30%, or phytotoxicity of 10% or more and less than 30%) | 0 (herbicidal effect of not less than 0% and less than 10%, or phytotoxicity of 0% or more and less than 10%) | 4 (herbicidal effect of not less than 70% and less than 90%, or phytotoxicity of 70% or more and less than 90%) | 5 (herbicidal effect of not less than 90%, or phytotoxicity of 90% or more) | 5 (herbicidal effect of not less than 90%, or phytotoxicity of 90% or more) | 5 (herbicidal effect of not less than 90%, or phytotoxicity of 90% or more) | 3 (herbicidal effect of not less than 50% and less than 70%, or phytotoxicity of 50% or more and less than 70%) | 4 (herbicidal effect of not less than 70% and less than 90%, or phytotoxicity of 70% or more and less than 90%) | 4 (herbicidal effect of not less than 70% and less than 90%, or phytotoxicity of 70% or more and less than 90%) | 5 (herbicidal effect of not less than 90%, or phytotoxicity of 90% or more) | 0 (herbicidal effect of not less than 0% and less than 10%, or phytotoxicity of 0% or more and less than 10%) | 0 (herbicidal effect of not less than 0% and less than 10%, or phytotoxicity of 0% or more and less than 10%) | 5 (herbicidal effect of not less than 90%, or phytotoxicity of 90% or more) | 4 (herbicidal effect of not less than 70% and less than 90%, or phytotoxicity of 70% or more and less than 90%) | 5 (herbicidal effect of not less than 90%, or phytotoxicity of 90% or more) | 5 (herbicidal effect of not less than 90%, or phytotoxicity of 90% or more)
2 | CNC(=O)C(Cn1cc(C)c(-c2cc(F)c(OC)c(F)c2)n1)=NOC [Compound 92] | 0 (herbicidal effect of not less than 0% and less than 10%, or phytotoxicity of 0% or more and less than 10%) | 0 (herbicidal effect of not less than 0% and less than 10%, or phytotoxicity of 0% or more and less than 10%) | 0 (herbicidal effect of not less than 0% and less than 10%, or phytotoxicity of 0% or more and less than 10%) | 5 (herbicidal effect of not less than 90%, or phytotoxicity of 90% or more) | 5 (herbicidal effect of not less than 90%, or phytotoxicity of 90% or more) | 5 (herbicidal effect of not less than 90%, or phytotoxicity of 90% or more) | 5 (herbicidal effect of not less than 90%, or phytotoxicity of 90% or more) | 5 (herbicidal effect of not less than 90%, or phytotoxicity of 90% or more) | 5 (herbicidal effect of not less than 90%, or phytotoxicity of 90% or more) | 5 (herbicidal effect of not less than 90%, or phytotoxicity of 90% or more) | 5 (herbicidal effect of not less than 90%, or phytotoxicity of 90% or more) | 0 (herbicidal effect of not less than 0% and less than 10%, or phytotoxicity of 0% or more and less than 10%) | 0 (herbicidal effect of not less than 0% and less than 10%, or phytotoxicity of 0% or more and less than 10%) | 5 (herbicidal effect of not less than 90%, or phytotoxicity of 90% or more) | 5 (herbicidal effect of not less than 90%, or phytotoxicity of 90% or more) | 5 (herbicidal effect of not less than 90%, or phytotoxicity of 90% or more) | 5 (herbicidal effect of not less than 90%, or phytotoxicity of 90% or more)
3 | CCc1cn(CC(=NOC)C(=O)NC)nc1-c1ccccc1 [Compound 98] | 0 (herbicidal effect of not less than 0% and less than 10%, or phytotoxicity of 0% or more and less than 10%) | 0 (herbicidal effect of not less than 0% and less than 10%, or phytotoxicity of 0% or more and less than 10%) | 0 (herbicidal effect of not less than 0% and less than 10%, or phytotoxicity of 0% or more and less than 10%) | 3 (herbicidal effect of not less than 50% and less than 70%, or phytotoxicity of 50% or more and less than 70%) | 5 (herbicidal effect of not less than 90%, or phytotoxicity of 90% or more) | 4 (herbicidal effect of not less than 70% and less than 90%, or phytotoxicity of 70% or more and less than 90%) | 4 (herbicidal effect of not less than 70% and less than 90%, or phytotoxicity of 70% or more and less than 90%) | 3 (herbicidal effect of not less than 50% and less than 70%, or phytotoxicity of 50% or more and less than 70%) | 4 (herbicidal effect of not less than 70% and less than 90%, or phytotoxicity of 70% or more and less than 90%) | 4 (herbicidal effect of not less than 70% and less than 90%, or phytotoxicity of 70% or more and less than 90%) | 4 (herbicidal effect of not less than 70% and less than 90%, or phytotoxicity of 70% or more and less than 90%) | 0 (herbicidal effect of not less than 0% and less than 10%, or phytotoxicity of 0% or more and less than 10%) | 0 (herbicidal effect of not less than 0% and less than 10%, or phytotoxicity of 0% or more and less than 10%) | 5 (herbicidal effect of not less than 90%, or phytotoxicity of 90% or more) | 4 (herbicidal effect of not less than 70% and less than 90%, or phytotoxicity of 70% or more and less than 90%) | 5 (herbicidal effect of not less than 90%, or phytotoxicity of 90% or more) | 4 (herbicidal effect of not less than 70% and less than 90%, or phytotoxicity of 70% or more and less than 90%)
4 | CNC(=O)C(Cn1cc(C)c(-c2ccccc2)n1)=NOCF [Compound 103] | 0 (herbicidal effect of not less than 0% and less than 10%, or phytotoxicity of 0% or more and less than 10%) | 0 (herbicidal effect of not less than 0% and less than 10%, or phytotoxicity of 0% or more and less than 10%) | 0 (herbicidal effect of not less than 0% and less than 10%, or phytotoxicity of 0% or more and less than 10%) | 4 (herbicidal effect of not less than 70% and less than 90%, or phytotoxicity of 70% or more and less than 90%) | 5 (herbicidal effect of not less than 90%, or phytotoxicity of 90% or more) | 5 (herbicidal effect of not less than 90%, or phytotoxicity of 90% or more) | 5 (herbicidal effect of not less than 90%, or phytotoxicity of 90% or more) | 3 (herbicidal effect of not less than 50% and less than 70%, or phytotoxicity of 50% or more and less than 70%) | 5 (herbicidal effect of not less than 90%, or phytotoxicity of 90% or more) | 5 (herbicidal effect of not less than 90%, or phytotoxicity of 90% or more) | 4 (herbicidal effect of not less than 70% and less than 90%, or phytotoxicity of 70% or more and less than 90%) | 0 (herbicidal effect of not less than 0% and less than 10%, or phytotoxicity of 0% or more and less than 10%) | 0 (herbicidal effect of not less than 0% and less than 10%, or phytotoxicity of 0% or more and less than 10%) | 5 (herbicidal effect of not less than 90%, or phytotoxicity of 90% or more) | 5 (herbicidal effect of not less than 90%, or phytotoxicity of 90% or more) | 5 (herbicidal effect of not less than 90%, or phytotoxicity of 90% or more) | 5 (herbicidal effect of not less than 90%, or phytotoxicity of 90% or more)
